US7781436B2 (Hoffmann-La Roche Inc., priority 2005, dated 2010)
Like-named read-outs stand apart in the source and are kept apart here.

Target: T1, human V1a receptor (Homo sapiens, UniProt P37288)
T1 construct: expressed in transfected cells; host or cells: HEK293 cells, transiently transfected; membranes prepared
Assay: human V1a receptor binding (3H-Vasopressin SPA, membranes of transfected HEK293 cells)
Procedure: The human V1a receptor was cloned by RT-PCR from total human liver RNA. The coding sequence was subcloned in an expression vector after sequencing to confirm the identity of the amplified sequence. […] Cell membranes were prepared from HEK293 cells transiently transfected with the expression vector and grown in 20 liter fermenters with the following protocol.
50 g of cells are resuspended in 30 ml freshly prepared ice cold Lysis buffer (50 mM HEPES, 1 mM EDTA, 10 mM MgCl2 adjusted to pH=7.4+ complete cocktail of protease inhibitor (Roche Diagnostics)). Homogenized with Polytron for 1 min and sonicated on ice for 2×2 minutes at 80% intensity (Vibracell sonicator). The preparation is centrifuged 20 min at 500 g at 4° C., the pellet is discarded and the supernatant centrifuged 1 hour at 43,000 g at 4° C. (19'000 rpm). The pellet is resuspended in 12.5 ml Lysis buffer+12.5 ml Sucrose 20% and homogenized using a Polytron for 1-2 min. The protein concentration is determined by the Bradford method, and aliquots are stored at −80° C. until use. For binding studies 60 mg Yttrium silicate SPA beads (Amersham) are mixed with an aliquot of membrane in binding buffer (50 mM Tris, 120 mM NaCl, 5 mM KCl, 2 mM CaCl2, 10 mM MgCl2) for 15 minutes with mixing. 50 ul of bead/membrane mixture is then added to each well of a 96 well plate, followed by 50 ul of 4 nM 3H-Vasopressin (American Radiolabeled Chemicals). For total binding measurement 100 ul of binding buffer are added to the respective wells, for non-specific binding 100 ul of […] cold vasopressin and for compound testing 100 ul of a serial dilution of each compound in 2% DMSO. The plate is incubated 1 h at room temperature, centrifuged 1 min at 1000 g and counted on a Packard Top-Count. Non-specific binding counts are subtracted from each well, and data is normalized to the maximum specific binding set at 100%. To calculate an IC 50 the curve is fitted using a non-linear regression model (XLfit) and the Ki is calculated using the Cheng-Prussoff equation.

[1] = displacement of 4 nM 3H-Vasopressin, HEK293 cell membranes, Ki by Cheng-Prussoff from IC50, read-out: Ki

T1 sequence (P37288 whole entry): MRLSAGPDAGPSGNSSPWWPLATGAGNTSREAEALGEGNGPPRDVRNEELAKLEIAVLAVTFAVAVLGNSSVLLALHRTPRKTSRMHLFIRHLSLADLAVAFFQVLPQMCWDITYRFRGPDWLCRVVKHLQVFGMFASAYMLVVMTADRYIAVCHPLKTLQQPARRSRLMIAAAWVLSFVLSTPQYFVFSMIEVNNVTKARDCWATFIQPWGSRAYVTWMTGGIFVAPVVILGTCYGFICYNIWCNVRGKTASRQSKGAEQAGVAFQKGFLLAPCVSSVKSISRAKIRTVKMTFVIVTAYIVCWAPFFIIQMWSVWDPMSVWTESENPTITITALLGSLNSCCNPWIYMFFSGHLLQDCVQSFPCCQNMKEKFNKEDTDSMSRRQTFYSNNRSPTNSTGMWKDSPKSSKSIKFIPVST

Row | SMILES | Ki [nM] | Ki [1] [nM]
1 | COc1ccccc1C1(C#N)CCN(C(=O)c2cn(CC(=O)N(C)C)c3cc(Cl)ccc23)CC1 [Example 60, 2-{6-Chloro-3-[4-cyano-4-(2-methoxy-phenyl)-piperidine-1-carbonyl]-indol-1-yl}-N,N-dimethyl-acetamide] | 8 | –
2 | CN(C)C(=O)Cn1cc(C(=O)N2CCC(C#N)(c3ccccc3F)CC2)c2ccc(Cl)cc21 [Example 61, 2-{6-Chloro-3-[4-cyano-4-(2-fluoro-phenyl)-piperidine-1-carbonyl]-indol-1-yl}-N,N-dimethyl-acetamide] | 13 | –
3 | COc1cccc(OC)c1C1CCN(C(=O)c2cn(CC(=O)N(C)C)c3ccccc23)CC1 [Example 62, 2-{3-[4-(2,6-Dimethoxy-phenyl)-piperidine-1-carbonyl]-indol-1-yl}-N,N-dimethyl-acetamide] | – | 11
4 | COc1cccc(OC)c1C1CCN(C(=O)c2cn(Cc3ccnc(C)c3)c3cc(Cl)ccc23)CC1 [Example 63, [6-Chloro-1-(2-methyl-pyridin-4-ylmethyl)-1H-indol-3-yl]-[4-(2,6-dimethoxy-phenyl)-piperidin-1-yl]-methanone] | – | 2
5 | CC(C)Oc1ccccc1C1CCN(C(=O)c2cn(CC(=O)N(C)C)c3cc(Cl)ccc23)CC1 [Example 66, 2-{6-Chloro-3-[4-(2-isopropoxy-phenyl)-piperidine-1-carbonyl]-indol-1-yl}-N,N-dimethyl-acetamide] | – | 4
6 | CC(C)Oc1ccccc1C1CCN(C(=O)c2cn(CC(=O)N3CCN(C)CC3)c3cc(Cl)ccc23)CC1 [Example 67, 2-{6-Chloro-3-[4-(2-isopropoxy-phenyl)-piperidine-1-carbonyl]-indol-1-yl}-1-(4-methyl-piperazin-1-yl)-ethanone] | – | 5
7 | COc1cccc(OC)c1C1CCN(C(=O)c2cn(CC(=O)N3CCNCC3)c3cc(Cl)ccc23)CC1 [Example 69, 2-{6-Chloro-3-[4-(2,6-dimethoxy-phenyl)-piperidine-1-carbonyl]-indol-1-yl}-1-piperazin-1-yl-ethanone] | – | 6
8 | CN1CCN(C(=O)Cn2cc(C(=O)N3CCC(c4cccc5c4OCC5)CC3)c3ccc(Cl)cc32)CC1 [Example 71, 2-{6-Chloro-3-[4-(2,3-dihydro-benzofuran-7-yl)-piperidine-1-carbonyl]-indol-1-yl}-1-(4-methyl-piperazin-1-yl)-ethanone] | 5 | –
9 | CN(C)C(=O)Cn1cc(C(=O)N2CCC(c3cccc4c3OCC4)CC2)c2ccc(Cl)cc21 [Example 72, 2-{6-Chloro-3-[4-(2,3-dihydro-benzofuran-7-yl)-piperidine-1-carbonyl]-indol-1-yl}-N,N-dimethyl-acetamide] | – | 3
10 | CNC(=O)Cn1cc(C(=O)N2CCC(c3cccc4c3OCC4)CC2)c2ccc(Cl)cc21 [Example 76, 2-{6-Chloro-3-[4-(2,3-dihydro-benzofuran-7-yl)-piperidine-1-carbonyl]-indol-1-yl}-N-methyl-acetamide] | – | 8
11 | COc1ccccc1C1CCN(C(=O)c2cn(CC(=O)N(C)C)c3cc(Cl)c(Cl)cc23)CC1 [Example 80, 2-{5,6-Dichloro-3-[4-(2-methoxy-phenyl)-piperidine-1-carbonyl]-indol-1-yl}-N,N-dimethyl-acetamide] | – | 6
12 | COc1cccc(OC)c1C1CCN(C(=O)c2cn(CC(N)=O)c3cc(Cl)ccc23)CC1 [Example 81, 2-{6-Chloro-3-[4-(2,6-dimethoxy-phenyl)-piperidine-1-carbonyl]-indol-1-yl}-acetamide] | 13 | –
13 | CNC(=O)Cn1cc(C(=O)N2CCC(c3c(OC)cccc3OC)CC2)c2ccc(Cl)cc21 [Example 82, 2-{6-Chloro-3-[4-(2,6-dimethoxy-phenyl)-piperidine-1-carbonyl]-indol-1-yl}-N-methyl-acetamide] | – | 2
14 | COc1cccc(OC)c1C1CCN(C(=O)c2cn(CC(=O)NCCN)c3cc(Cl)ccc23)CC1 [Example 84, N-(2-Amino-ethyl)-2-{6-chloro-3-[4-(2,6-dimethoxy-phenyl)-piperidine-1-carbonyl]-indol-1-yl}-acetamide] | – | 11
15 | CN(C)CCn1cc(C(=O)N2CCC(c3cccc4c3OCC4)CC2)c2ccc(Cl)cc21 [Example 87, [6-Chloro-1-(2-dimethylamino-ethyl)-1H-indol-3-yl]-[4-(2,3-dihydro-benzofuran-7-yl)-piperidin-1-yl]-methanone] | 4 | –
16 | CN1CCN(C(=O)Cn2cc(C(=O)N3CCC(c4ccccc4OC(F)(F)F)CC3)c3ccc(Cl)cc32)CC1 [Example 88, 2-{6-Chloro-3-[4-(2-trifluoromethoxy-phenyl)-piperidine-1-carbonyl]-indol-1-yl}-1-(4-methyl-piperazin-1-yl)-ethanone] | – | 7
17 | CNC(=O)Cn1cc(C(=O)N2CCC(c3ccccc3OC(F)(F)F)CC2)c2ccc(Cl)cc21 [Example 90, 2-{6-Chloro-3-[4-(2-trifluoromethoxy-phenyl)-piperidine-1-carbonyl]-indol-1-yl}-N-methyl-acetamide] | – | 8
18 | CN(C)C(=O)Cn1cc(C(=O)N2CCC(c3ccccc3OC(F)(F)F)CC2)c2ccc(Cl)cc21 [Example 95, 2-{6-Chloro-3-[4-(2-trifluoromethoxy-phenyl)-piperidine-1-carbonyl]-indol-1-yl}-N,N-dimethyl-acetamide] | 13 | –
19 | CNC(=O)Cn1cc(C(=O)N2CCC(c3ccccc3C(F)(F)F)CC2)c2ccc(Cl)cc21 [Example 96, 2-{6-Chloro-3-[4-(2-trifluoromethyl-phenyl)-piperidine-1-carbonyl]-indol-1-yl}-N-methyl-acetamide] | – | 11
20 | CN1CCN(C(=O)Cn2cc(C(=O)N3CCC(c4ccccc4C(F)(F)F)CC3)c3ccc(Cl)cc32)CC1 [Example 97, 2-{6-Chloro-3-[4-(2-trifluoromethyl-phenyl)-piperidine-1-carbonyl]-indol-1-yl}-1-(4-methyl-piperazin-1-yl)-ethanone] | – | 6
21 | CN(C)C(=O)Cn1cc(C(=O)N2CCC(c3ccccc3C(F)(F)F)CC2)c2ccc(Cl)cc21 [Example 102, 2-{6-Chloro-3-[4-(2-trifluoromethyl-phenyl)-piperidine-1-carbonyl]-indol-1-yl}-N,N-dimethyl-acetamide] | – | 7
22 | CNC(=O)Cn1cc(C(=O)N2CCC(c3ccccc3OC)CC2)c2ccc(Cl)cc21 [Example 106, 2-{6-Chloro-3-[4-(2-methoxy-phenyl)-piperidine-1-carbonyl]-indol-1-yl}-N-methyl-acetamide] | – | 5
23 | CNCCn1cc(C(=O)N2CCC(c3cccc4c3OCC4)CC2)c2ccc(Cl)cc21 [Example 107, [6-Chloro-1-(2-methylamino-ethyl)-1H-indol-3-yl]-[4-(2,3-dihydro-benzofuran-7-yl)-piperidin-1-yl]-methanone] | – | 12
24 | COc1ccccc1C1CCN(C(=O)c2cn(CCN(C)C)c3cc(Cl)ccc23)CC1 [Example 108, [6-Chloro-1-(2-dimethylamino-ethyl)-1H-indol-3-yl]-[4-(2-methoxy-phenyl)-piperidin-1-yl]-methanone] | – | 8
25 | CNC(=O)Cn1cc(C(=O)N2CCC(c3ccccc3F)CC2)c2ccc(Cl)cc21 [Example 111, 2-{6-Chloro-3-[4-(2-fluoro-phenyl)-piperidine-1-carbonyl]-indol-1-yl}-N-methyl-acetamide] | – | 7
26 | CN(C)C(=O)Cn1cc(C(=O)N2CCC(c3ccccc3F)CC2)c2ccc(Cl)cc21 [Example 114, 2-{6-Chloro-3-[4-(2-fluoro-phenyl)-piperidine-1-carbonyl]-indol-1-yl}-N,N-dimethyl-acetamide] | – | 3
